Earlier results as cited in US20070134341A1, “COMPOSITIONS OF LIPOXYGENASE INHIBITORS” (priority 2005, published 2007).

- solubility in acetonitrile (acetonitrile): slightly soluble
- solubility in ethanol (ethanol): soluble
- solubility in hexane (hexane): practically insoluble
- solubility in methanol (methanol): soluble
- solubility in water (water): practically insoluble
- water solubility (water, 25° C.): 80 to 140 µg/mL
Compound: CC(c1cc2ccccc2s1)N(O)C(N)=O (racemic) [Zileuton, (±)-1-(1-benzo[b]thien-2-ylethyl)-1-hydroxyurea]
